Earlier results on two molecules are cited in patent US8192721B2, “Compositions useful for reducing toxicity associated with gadolinium-based contrast agents” (Verrow Pharmaceuticals, Inc., priority 2007, dated 2012).

For data set [1] the following is noted: healthy subjects with normal renal function.
For data set [2] the following is noted: compared with underivatized β-cyclodextrin.

For `[Gd]` [gadolinium], the plasma half-life entry in data set [1] was “approximately 90 minutes”.
As for “β-cyclodextrin sulfobutyl ethers [Captisol®]”, in data set [2], the nephrotoxicity entry is listed as “does not exhibit the nephrotoxicity”.
